Experimental data reported in ChEMBL document CHEMBL3588782, “Synthesis, antiribosomal and antibacterial activity of 4-O-glycopyranosyl paromomycin aminoglycoside antibiotics” (Medchemcomm, 2014).
In brackets after ≈: the same amount, converted by molar mass.

What was measured:
[1] = Inhibition of Mycobacterium smegmatis ribosome containing ribosomal RNA A-site A1408G mutant in rabbit reticulocyte lysates assessed as reduction in ribosome-mediated protein synthesis in presence of S-30 extracts by fire fly luciferase synthesis based cell-free translation assay; design: species or system Mycolicibacterium smegmatis
Staphylococcus aureus [2] = test: Antibacterial activity against methicillin-resistant Staphylococcus aureus isolate AG 042 by broth microdilution assay; format: functional
[3] = Inhibition of human ribosome containing eukaryotic ribosomal RNA A-site Cyt14 allele in rabbit reticulocyte lysates assessed as reduction in ribosome-mediated protein synthesis in presence of S-30 extracts by fire fly luciferase synthesis based cell-free translation assay
Escherichia coli [4] = test: Antibacterial activity against Escherichia coli isolate 006 by broth microdilution assay; format: functional
[5] = Inhibition of human ribosome containing eukaryotic ribosomal RNA A-site A1555G mutant in rabbit reticulocyte lysates assessed as reduction in ribosome-mediated protein synthesis in presence of S-30 extracts by fire fly luciferase synthesis based cell-free translation assay
Staphylococcus aureus [6] = test: Antibacterial activity against methicillin-resistant Staphylococcus aureus isolate AG 039 by broth microdilution assay; format: functional
Staphylococcus aureus [7] = test: Antibacterial activity against methicillin-resistant Staphylococcus aureus isolate AG 044 by broth microdilution assay; format: functional
[8] = Inhibition of Mycobacterium smegmatis ribosome containing ribosomal RNA A-site G1491C mutant in rabbit reticulocyte lysates assessed as reduction in ribosome-mediated protein synthesis in presence of S-30 extracts by fire fly luciferase synthesis based cell-free translation assay; design: species or system Mycolicibacterium smegmatis
Escherichia coli [9] = test: Antibacterial activity against Escherichia coli isolate 003 by broth microdilution assay; format: functional
80S Ribosome = test: Inhibition of human ribosome containing eukaryotic wild type ribosomal RNA A-site in rabbit reticulocyte lysates assessed as reduction in ribosome-mediated protein synthesis in presence of S-30 extracts by fire fly luciferase synthesis based cell-free translation assay
Escherichia coli [10] = test: Antibacterial activity against Escherichia coli isolate 055 by broth microdilution assay; format: functional
Ribosome = test: Inhibition of ribosome-mediated protein synthesis in rabbit reticulocyte lysates in presence of S-30 extracts by fire fly luciferase synthesis based cell-free translation assay; design: species or system Oryctolagus cuniculus
Bacterial 70S ribosome = test: Inhibition of Mycobacterium smegmatis ribosome containing wild type ribosomal RNA A-site in rabbit reticulocyte lysates assessed as reduction in ribosome-mediated protein synthesis in presence of S-30 extracts by fire fly luciferase synthesis based cell-free translation assay; design: species or system Mycolicibacterium smegmatis
[11] = Inhibition of Mycobacterium smegmatis ribosome containing ribosomal RNA A-site G1491A mutant in rabbit reticulocyte lysates assessed as reduction in ribosome-mediated protein synthesis in presence of S-30 extracts by fire fly luciferase synthesis based cell-free translation assay; design: species or system Mycolicibacterium smegmatis
Staphylococcus aureus [12] = test: Antibacterial activity against methicillin-resistant Staphylococcus aureus isolate AG 038 by broth microdilution assay; format: functional
Escherichia coli [13] = test: Antibacterial activity against Escherichia coli isolate 001 by broth microdilution assay; format: functional

| SMILES | IC50 [1] [µg/mL] | MIC (Staphylococcus aureus [2]) [µg/mL] | IC50 [3] [µg/mL] | MIC (Escherichia coli [4]) [µg/mL] | IC50 [5] [µg/mL] | MIC (Staphylococcus aureus [6]) [µg/mL] | MIC (Staphylococcus aureus [7]) [µg/mL] | IC50 [8] [µg/mL] | MIC (Escherichia coli [9]) [µg/mL] | IC50 (80S Ribosome) [µM] | MIC (Escherichia coli [10]) [µg/mL] | IC50 (Ribosome) [µg/mL] | IC50 (Bacterial 70S ribosome) [nM] | IC50 [11] [µg/mL] | MIC (Staphylococcus aureus [12]) [µg/mL] | MIC (Escherichia coli [13]) [µg/mL] |
| --- | --- | --- | --- | --- | --- | --- | --- | --- | --- | --- | --- | --- | --- | --- | --- | --- |
| NC[C@@H]1O[C@H](O[C@H]2[C@@H](O)[C@H](O[C@@H]3[C@@H](O)[C@H](N)C[C@H](N)[C@H]3O[C@H]3O[C@H](CO)[C@@H](O)[C@H](O)[C@H]3N)O[C@@H]2CO)[C@H](N)[C@@H](O)[C@@H]1O [PAROMOMYCIN] | 0.26 | > 256 | 10.39 | 2 (≈ 3.25 µM) | 5.83 | > 256 | 4 (≈ 6.5 µM) | 10.42 | 8 (≈ 13 µM) | 82.1 | 8 (≈ 13 µM) | 9.78 | 48.7 | 0.57 | 4 (≈ 6.5 µM) | 16 (≈ 26 µM) |
| NC[C@@H]1O[C@H](O[C@H]2[C@@H](O)[C@H](O[C@@H]3[C@@H](O)[C@H](N)C[C@H](N)[C@H]3O[C@H]3O[C@H](CO)[C@@H](O[C@@H]4O[C@H](CO)[C@H](O)[C@H](O)[C@H]4O)[C@H](O)[C@H]3N)O[C@@H]2CO)[C@H](N)[C@@H](O)[C@@H]1O | 36.46 | > 128 | 286.76 | 128 (≈ 165 µM) | 209.22 | ≥ 128 | > 128 | 623.16 | > 128 | 182 | > 128 | 104.57 | 1950 | 78.05 | ≥ 128 | > 128 |
| CN[C@@H]1[C@@H](O[C@H]2O[C@H](CO)[C@@H](N)[C@H](O)[C@H]2O)O[C@H]2C[C@@H](N)[C@@H](O[C@H]3[C@H](O)[C@@H](O)[C@H](N)C[C@@H]3N)O[C@@H]2[C@@H]1O [APRAMYCIN] | 128.89 | 8 (≈ 14.8 µM) | 49.17 | 4 (≈ 7.41 µM) | 26.06 | 8 (≈ 14.8 µM) | 16 (≈ 29.7 µM) | 31.21 | 8 (≈ 14.8 µM) | 108 | 8 (≈ 14.8 µM) | 23.77 | 111 | 5 | 8 (≈ 14.8 µM) | 16 (≈ 29.7 µM) |
| NC[C@@H]1O[C@H](O[C@H]2[C@@H](O)[C@H](O[C@@H]3[C@@H](O)[C@H](N)C[C@H](N)[C@H]3O[C@H]3O[C@H](CO)[C@@H](O[C@H]4O[C@H](CO)[C@@H](O)[C@H](O)[C@H]4O)[C@H](O)[C@H]3N)O[C@@H]2CO)[C@H](N)[C@@H](O)[C@@H]1O | 21.84 | 32 (≈ 41.1 µM) | 46.26 | 16 (≈ 20.6 µM) | 13.98 | 32 (≈ 41.1 µM) | 16 (≈ 20.6 µM) | 109.01 | 128 (≈ 165 µM) | 2.39 | 128 (≈ 165 µM) | 30.64 | 411 | 27.08 | 32 (≈ 41.1 µM) | 128 (≈ 165 µM) |
| NC[C@@H]1O[C@H](O[C@H]2[C@@H](O)[C@H](O[C@@H]3[C@@H](O)[C@H](N)C[C@H](N)[C@H]3O[C@H]3O[C@H](CO)[C@@H](O[C@@H]4O[C@H](CO)[C@@H](N)[C@H](O)[C@H]4O)[C@H](O)[C@H]3N)O[C@@H]2CO)[C@H](N)[C@@H](O)[C@@H]1O | 2.39 | > 64 | 21.43 | 16 (≈ 20.6 µM) | 17.38 | > 64 | 32 (≈ 41.2 µM) | 32.03 | > 64 | 9.81 | > 64 | 32.41 | 373 | 4.87 | 32 (≈ 41.2 µM) | > 64 |
| NC[C@@H]1O[C@H](O[C@H]2[C@@H](O)[C@H](O[C@@H]3[C@@H](O)[C@H](N)C[C@H](N)[C@H]3O[C@H]3O[C@H](CO)[C@@H](O[C@@H]4O[C@H](CO)[C@@H](O)[C@H](O)[C@H]4O)[C@H](O)[C@H]3N)O[C@@H]2CO)[C@H](N)[C@@H](O)[C@@H]1O | 9.32 | > 128 | 117.53 | 32 (≈ 41.1 µM) | 83.64 | ≥ 128 | 128 (≈ 165 µM) | 294.83 | > 128 | 76 | > 128 | 60.75 | 476 | 15.5 | 128 (≈ 165 µM) | > 128 |
| NC[C@@H]1O[C@H](O[C@H]2[C@@H](O)[C@H](O[C@@H]3[C@@H](O)[C@H](N)C[C@H](N)[C@H]3O[C@H]3O[C@H](CO)[C@@H](O[C@H]4O[C@H](CO)[C@@H](O)[C@H](O)[C@@H]4O)[C@H](O)[C@H]3N)O[C@@H]2CO)[C@H](N)[C@@H](O)[C@@H]1O | 5.1 | > 128 | 51.72 | 16 (≈ 20.6 µM) | 18.05 | ≥ 128 | 32 (≈ 41.1 µM) | 81.32 | ≥ 128 | 2.82 | > 128 | 36.82 | 373 | 8.79 | 64 (≈ 82.3 µM) | > 128 |
| NC[C@@H]1O[C@H](O[C@H]2[C@@H](O)[C@H](O[C@@H]3[C@@H](O)[C@H](N)C[C@H](N)[C@H]3O[C@H]3O[C@H](CO)[C@@H](O[C@@H]4O[C@H](CO)[C@@H](O)[C@H](O)[C@@H]4O)[C@H](O)[C@H]3N)O[C@@H]2CO)[C@H](N)[C@@H](O)[C@@H]1O | 27.91 | ≥ 128 | 90.35 | 64 (≈ 82.3 µM) | 85.7 | ≥ 128 | ≥ 128 | 297.39 | > 128 | 70.2 | > 128 | 47.64 | 591 | 51.48 | ≥ 128 | > 128 |
| NC[C@@H]1O[C@H](O[C@H]2[C@@H](O)[C@H](O[C@@H]3[C@@H](O)[C@H](N)C[C@H](N)[C@H]3O[C@H]3O[C@H](CO)[C@@H](OCO[C@H]4O[C@H](CO)[C@@H](O)[C@H](O)[C@H]4O)[C@H](O)[C@H]3N)O[C@@H]2CO)[C@H](N)[C@@H](O)[C@@H]1O | 17.16 | 128 (≈ 158 µM) | 130.61 | 64 (≈ 79.2 µM) | 96.03 | ≥ 128 | 64 (≈ 79.2 µM) | 200.3 | ≥ 128 | 29.8 | ≥ 128 | 43.14 | 384 | 33.45 | 64 (≈ 79.2 µM) | ≥ 128 |
| NC[C@@H]1O[C@H](O[C@H]2[C@@H](O)[C@H](O[C@@H]3[C@@H](O)[C@H](N)C[C@H](N)[C@H]3O[C@H]3O[C@@H]4COC(CCc5ccccc5)O[C@H]4[C@H](O)[C@H]3N)O[C@@H]2CO)[C@H](N)[C@@H](O)[C@@H]1O (some centres undefined) | 3.81 | 4 (≈ 5.47 µM) | 183.86 | 16 (≈ 21.9 µM) | 126.88 | 8 (≈ 10.9 µM) | 16 (≈ 21.9 µM) | 124.07 | 32 (≈ 43.7 µM) | 452 | 32 (≈ 43.7 µM) | – | 137 | 43.01 | 4 (≈ 5.47 µM) | 32 (≈ 43.7 µM) |
| NC[C@@H]1O[C@H](O[C@H]2[C@@H](O)[C@H](O[C@@H]3[C@@H](O)[C@H](N)C[C@H](N)[C@H]3O[C@H]3O[C@H](CO)[C@@H](OCCCc4ccccc4)[C@H](O)[C@H]3N)O[C@@H]2CO)[C@H](N)[C@@H](O)[C@@H]1O | 14.52 | 4 (≈ 5.45 µM) | 268.57 | 8 (≈ 10.9 µM) | 105.68 | 8 (≈ 10.9 µM) | 4 (≈ 5.45 µM) | 210.73 | 8 (≈ 10.9 µM) | 67.9 | 16 (≈ 21.8 µM) | – | 273 | 51.26 | 2 (≈ 2.73 µM) | 16 (≈ 21.8 µM) |
